Assay results: US10160785B2, “Antimicrobial peptides and their use for the treatment of topical infections” (priority 2015, dated 2018)
Where a SMILES comes first, the peptide text is derived from it.

Tested on: Candida albicans (Olomouc) biofilm
Experiment: C. albicans biofilm, remaining metabolic activity (XTT)
Format: cell-based
Procedure, shortened: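 Candida albicans (Olomouc) biofilms grown 48 h at 37 °C in MOPS-buffered RPMI 1640 from 1×10^6 CFU inocula, then exposed 20 h to peptide at 0.39-200 μmol.l^−1. XTT/PMS staining for 90 min, A540; remaining metabolic activity expressed as percent of untreated biofilm after blank correction.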

In the case of `CCCC[C@H](NC(=O)[C@H](CC(C)C)NC(=O)[C@H](CO)NC(=O)[C@H](CO)NC(=O)[C@H](CCCC)NC(=O)[C@@H](NC(=O)CN)[C@@H](C)CC)C(=O)N[C@@H](CCCCN)C(=O)N[C@@H](CCCCN)C(=O)N[C@@H](CC(C)C)C(=O)N[C@@H](CCCCN)C(=O)N[C@@H](CCCCN)C(=O)N[C@H](C(=O)N[C@H](C(=O)N[C@@H](C)C(=O)N[C@@H](CCCCN)C(N)=O)[C@@H](C)CC)[C@@H](C)CC` [V] (HELM PEPTIDE1{G.I.[Nle].S.S.L.[Nle].K.K.L.K.K.I.I.A.K.[am]}$$$$V2.0), the “Metabolic activity of C. albicans (%)” value (peptide concentration 6.25 μmol · l^−1, 20 hours) is reported as 106.4%, the “Metabolic activity of C. albicans (%)” value (peptide concentration 12.5 μmol · l^−1, 20 hours) is reported as 89.5% and the “Metabolic activity of C. albicans (%)” value (peptide concentration 25 μmol · l^−1, 20 hours) is reported as 45.0%. The “Metabolic activity of C. albicans (%)” value (peptide concentration 50 μmol · l^−1, 20 hours) was 6.9%, the “Metabolic activity of C. albicans (%)” value (peptide concentration 100 μmol · l^−1, 20 hours) was 2.4% and the “Metabolic activity of C. albicans (%)” value (peptide concentration 200 μmol · l^−1, 20 hours) was 0.4%.
